The assay concerns Human colon cancer cells WiDr. The experiment in a line: Tumor growth inhibitory effect, WiDr subcutaneous xenograft in nude rats. It is filed as in vivo, F344/N Jcl-rnu nude rats. Particulars: gemcitabine 5 mg/kg i.v. days 0, 7, 14, Example 1 15 mg/kg oral days 1, 8, 15, n=5. On the procedure: Pharmacological Test 4 (Tumor Growth Inhibitory Effect)
Human colon cancer cells WiDr (obtained from ATCC) were implanted into the subcutaneous area of the back of F344/N Jcl-rnu nude rats. 12 days after the implantation, 5 mg/kg of gemcitabine (Gemzar, from Eli Lily) was intravenously administered to them; and after 24 hours, a test compound suspended in a solvent (0.5% methyl cellulose) was orally administered thereto. This was repeated once a week for 3 weeks. The tumor volume (0.5×major diameter×(minor diameter)^2) was measured on days 0, 3, 6, 10, 13, 17, 20, 24 and 27 (the first gemcitabine administration is on day 0). The relative tumor volume was calculated, based on the tumor volume on day 0, as 1. The tumor growth rate (% T/C) was obtained according to the formulae mentioned below.
In case where the tumor volume change from day 0 in the test compound administration group is more than 0 (>0): % T/C=(tumor volume change in the test compound group on days 3, 6, 10, 13, 17, 20, 24 and 27/tumor volume change in the control group on days 3, 6, 10, 13, 17, 20, 24 and 27)×100. In case where the tumor volume change from day 0 in the test compound administration group is less than 0 (<0): % T/C=(tumor volume change in the test compound group on days 3, 6, 10, 13, 17, 20, 24 and 27/tumor volume […] in the test compound group on day 0)×100.
Gemcitabine was administered on days 0, 7 and 14. The compound of Example 1 was administered on days 1, 8 and 15.

Counter-ions that a name gives are not always drawn.

As to `CN1Cc2cc(Nc3ncc4c(=N)n(-c5c(Cl)cccc5Cl)c(=O)[nH]c4n3)ccc2C2(CC2)C1` [Example 1, 3-(2,6-dichlorophenyl)-4-imino-7-[(2′-methyl-2′,3′-dihydro-1′H-spiro[cyclopropane-1,4′-isoquinolin]-7′-yl)amino]-3,4-dihydropyrimido[4,5-d]pyrimidin-2(1H)-one dihydrochloride], the “% T/C day 3” value (day 3) worked out at 107%. In addition, the “% T/C day 6” value (day 6) is 100%. Also, the “% T/C day 10” value (day 10) is reported as 87%. In addition, the “% T/C day 13” value (day 13) worked out at 91%. In addition, the “% T/C day 17” value (day 17) came to 88%. Also, where the note is “day 20”, the “% T/C day 20” value is 85%. Further, the “% T/C day 24” value (day 24) stood at 83%. For the same compound, the “% T/C day 27” value (day 27) is reported as 88%.

The record behind these values is patent US8436004B2, “Bicycloaniline derivative” (MSD K.K., priority 2007, dated 2013).
